# Read-outs that look alike come from different tables or passages of the source.
# Assays:
# [1] = tested on: Staphylococcus aureus strain UAMS-1; assay: Antimicrobial susceptibility testing (MIC, broth microdilution); type: cell-based; conditions: S. aureus UAMS-1, Mueller Hinton broth, 37° C.
# Method: The RNase P inhibitors described herein were tested for antimicrobial activity toward Staphylococcus aureus strain UAMS-1. Individual wells of a 96-well microtiter plate were inoculated with ˜1×10^5 colony-forming units (CFU) of the indicated organism, containing two-fold increasing concentrations (from 0 to 256 μg mL^−1) of the indicated antibiotic or putative RnpA inhibitor, and incubated at 37° C. for 18 hours in Mueller Hinton broth. The MIC was defined as the lowest concentration of antibiotic in which there was no visible bacterial growth in the wells. Minimum bactericidal concentration testing was performed by enumerating the bacterial cells in each of the wells containing treatments at and above the MIC.
# RnpA = target: T1, RnpA (Staphylococcus aureus, UniProt P0A0H5); assay: RnpA mRNA degradation activity assay; type: biochemical
# T1 sequence (P0A0H5 1-117): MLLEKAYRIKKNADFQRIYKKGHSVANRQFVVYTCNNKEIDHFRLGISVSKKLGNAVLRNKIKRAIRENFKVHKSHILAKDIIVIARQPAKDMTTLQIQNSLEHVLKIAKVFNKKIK
# Method: The RNase P inhibitors described herein were tested for activity toward RnpA mRNA degradation activity. Either 1 μg of total S. aureus RNA or 1 pmol of in vitro synthesized spa mRNA was incubated with 20 pmol RnpA at 37° C. for 15 to 30 min in a reaction buffer (50 mM Tris-HCl pH 8.0, 2 mM NaCl, 2 mM MgCl2) in the absence or presence of the indicated compound. Reactions were stopped by adding an equal volume of 2×RNA loading dye (95% formamide, 0.025% SDS, 0.025% bromophenol blue, 0.025% xylene cyanol FF, 0.5 mM EDTA), run on a denaturing 1.0% agarose-0.66 M formaldehyde gel and stained with ethidium bromide. RNA substrates and corresponding degradation products were visualized using a FluorChem 5500 system (Alpha Innotech; San Leandro, Calif.). The inhibitory effects of the test compounds were measured using Image J densitometry software (National Institutes of Health; Bethesda, Md.) to quantify the signal intensity of the RNA band(s) in the negative control (RNA alone), positive control (RnpA+RNA+DMSO), and experimental samples (RnpA+RNA+test compound). The percent enzyme inhibition of test compounds was calculated using the following equation: Percent inhibition=[(experimental signal-positive control)/(negative control signal-positive control signal)]*100.
# [2] = target: T2, S. aureus RNase P (RnpA+rnpB) (Staphylococcus aureus, UniProt P0A0H5); assay: RNase P activity assay (precursor tRNA processing); type: biochemical; conditions: gel densitometry
# T2 sequence (P0A0H5 1-117): T1 sequence (P0A0H5 1-117)
# Method: The RNase P inhibitors described herein were tested for activity toward RNase P. S. aureus RNase P activity assays were performed in low salt buffer (50 mM Tris-HCl pH 8.0, 5 mM MgCl2) or in high salt buffer (50 mM Tris-HCl pH 8.0, 100 mM MgCl2, 800 mM NH4Cl). For all reactions, ptRNATyr, tRNATyr, or rnpB RNA species were first denatured by heating to 95° C. for 3 minutes, and then slowly cooling the mixtures to room temperature. RNase P was reconstituted by mixing an equal molar ratio of RnpB and RnpA for 15 min at 37° C. Precursor tRNA processing reactions (20 μL) were performed by mixing 1.25 pmol RNase P (RnpA+rnpB), RnpA, or rnpB with an equal volume of 2× low salt buffer or 2× high salt buffer and 10 pmol ptRNATyr. Mixtures were incubated for 15 min at 37° C. Reactions were stopped by adding 20 μL 2×RNA loading dye (95% formamide, 0.025% SDS, 0.025% bromophenol blue, 0.025% xylene cyanol FF, 0.5 mM EDTA), and 30 μL of each sample was electrophoresed in a 7 M urea/8% polyacrylamide gel and was then stained with ethidium bromide (0.5 μg/ml). Where indicated, reactions were repeated in the presence of the indicated amount of putative RnpA inhibitors or dimethyl sulfoxide (DMSO). A FluorChem 5500 imaging system was used to visualize the RNA, and the relative abundance of the mature tRNATyr band in the positive control (RNase P+DMSO) or in samples containing test compounds was measured using Image J densitometry software (NIH). The percent RNase P activity was then calculated using the following calculation: (test compound tRNATyr signal/positive control tRNATyr signal)*100.
# [3] = Staphylococcus aureus, UAMS1, 18 h, read-out: MIC
# [4] = RnpA mRNA degradation, gel densitometry, read-out: RnpA IC50
# [5] = ptRNATyr processing, read-out: RNase P IC50
# [6] = RNase P IC50, ptRNATyr processing
SMILES,"MIC [1, 3] [µg/mL]",IC50 (RnpA; [4]) [µM],"IC50 [2, 5] [µM]",other results
CC(C)c1ccc(OCC(=O)NNC(=O)c2cccs2)cc1 [MC-190035],> 256,> 500,> 500,–
O=C(/C=C/c1ccccc1)NC(=S)NNC(=O)c1ccco1 [ST5254083],16,90,75,–
O=C(NC(=S)NNC(=O)c1ccccc1O)c1ccco1 [MC-190069],–,> 500,470,MIC ([1]; 18 hours): 64 µg/mL
O=C(NNC(=S)NC(=O)c1ccco1)c1cnccn1 [ST5641784],32,> 500,> 500,–
CC(C)C(=O)Nc1ccc(C(=O)NNC(=S)NC(=O)c2ccco2)cc1 [ST5525955],> 128,> 500,145,–
O=C(NC(=S)NNC(=O)c1ccco1)c1ccc(F)c(F)c1 [ST5704832],> 128,> 500,> 500,–
O=C(NNC(=S)NC(=O)c1ccco1)c1ccc(NC(=O)c2ccccc2)cc1 [ST5524510],> 128,–,> 500,–
Cc1ccoc1C(=O)NC(=S)NNC(=O)COc1ccc(C(C)C)cc1 [MC-190043],32,20,150,–
CC(C)c1ccc(OCC(=O)NNC(=S)NC(=O)Cc2ccco2)cc1 [MC-190084],16,–,–,–
CC(C)c1ccc(CNc2c(NCCc3ccco3)c(=O)c2=O)cc1 [MC-190092],256,250,250,–
CCC(C)c1ccc(OCC(=O)NNC(=S)NC(=O)c2ccc(-c3ccccc3)cc2)cc1 (stereo not shown) [ST5525289],64,40,> 500,–
CC(C)c1ccc(OCC(=O)NNC(=O)c2ccco2)cc1 [MC-190034],> 256,> 500,> 500,–
COCCOC(=O)CCC(=O)NC(=S)NNC(=O)COc1ccc(C(C)C)cc1 [ST5528839],> 128,–,> 500,–
CC(C)c1ccc(OCC(=O)NNC(=S)NC(=O)c2cnc3ccccc3c2)cc1 [MC-190082],> 128,–,–,–
O=C(NC(=S)NNC(=O)c1ccco1)c1cccnc1 [ST5254088],> 128,–,> 500,–
O=C(Cc1ccc(Cl)cc1)NNC(=S)NC(=O)c1ccco1 [ST5642600],16,> 500,> 500,–
COc1ccc(C(=O)NC(=S)NNC(=O)c2ccco2)cc1 [ST5254089],64,> 500,180,–
Cc1ccccc1C(=O)NNC(=S)NC(=O)c1ccco1 [ST5638722],64,> 500,430,–
O=C(Cc1ccccc1)NNC(=S)NC(=O)c1ccco1 [ST5682126],> 128,–,> 500,–
COc1ccc(C(=O)NNC(=S)NC(=O)c2ccco2)cc1 [ST5254069],16,> 500,> 500,–
COc1ccccc1C(=O)NNC(=S)NC(=O)c1ccco1 [ST5525332],–,–,–,"MIC ([1]; Staphylococcus aureus, UAMS1, 18 hours, read-out: MIC): 8 µg/mL; IC50 (RnpA): > 500 µM; IC50 [2, 6]: > 500 µM"

SMILES,"MIC [1, 3] [µg/mL]",IC50 (RnpA; [4]) [µM],"IC50 [2, 5] [µM]",other results
CC(C)c1ccc(CNc2c(NCc3ccco3)c(=O)c2=O)cc1 [MC-190091],128,25,–,–
COc1ccc(OCC(=O)NNC(=S)NC(=O)c2ccc(Br)o2)cc1 [ST5523216],32,> 500,425,–
Cc1cc(Cl)ccc1OCC(=O)NNC(=S)NC(=O)/C=C/c1ccco1 [ST5524187],32,175,65,–
O=C(CCc1ccccc1)NNC(=S)NC(=O)c1ccco1 [MC-190080],> 128,–,–,–
CC(C)c1ccc(OCC(=O)NNC(=O)c2ccsc2)cc1 [MC-190036],> 256,> 500,> 500,–
Cc1ccc(C(=O)NNC(=O)COc2ccc(C(C)C)cc2)o1 [MC-190041],> 256,470,385,–
Cc1ccc(OCc2ccc(C(=O)NNC(=S)NCC(C)C)o2)c(C)c1 [ST5607269],> 128,150,> 500,–
COc1ccc2cc(C(=O)NNC(=O)COc3ccc(C(C)C)cc3)[nH]c2c1 [MC-190059],> 256,150,80,–
O=C(NC(=S)NNC(=O)c1ccc(O)cc1O)c1ccco1 [ST5640720],16,> 500,> 500,–
O=C(COc1ccc(Cl)cc1Cl)NNC(=S)NC(=O)c1ccco1 [ST5682846],4,> 500,–,"IC50 [2, 6]: 80 µM"
CC(C)c1ccc(CCNc2c(NCc3nc4ccccc4[nH]3)c(=O)c2=O)cc1 [MC-190087],> 128,–,–,–
CCC(C)c1ccc(OCC(=O)NNC(=S)NC(=O)C2CCCCC2)cc1 (stereo not shown) [ST5525281],–,275,125,–
CC(C)c1ccc(OCC(=O)NNC(=S)NC(=O)c2cnco2)cc1 [MC-190039],64,–,–,IC50 (RnpA): > 500 µM
CC(C)c1ccc(OCC(=O)NNC(=S)NC(=O)c2ccoc2)cc1 [MC-190098],16,–,150,–
Cc1ccc(OCC(=O)NNC(=S)NC(=O)COc2ccccc2)cc1 [ST5521633],16,–,155,–
CC(C)c1ccc(CCNc2c(NCc3ccccn3)c(=O)c2=O)cc1 [MC-190086],> 128,–,–,–
Cc1ccc(CNc2c(NCCc3ccc(C(C)C)cc3)c(=O)c2=O)o1 [MC-190085],> 128,–,–,–
CC(C)c1ccc(CCNc2c(NCc3ccco3)c(=O)c2=O)cc1 [MC-190083],> 128,–,–,–
CC(C)c1ccc(CCNc2c(NCc3cc4ccccc4o3)c(=O)c2=O)cc1 [MC-190088],> 128,–,–,–
CC(C)c1ccc(CCNc2c(NCCc3ccco3)c(=O)c2=O)cc1 [MC-190090],256,50,–,–

# Source: patent US10028931B2, “Synergistic compositions for treating microbial infections” (UNIVERSITY OF ROCHESTER, priority 2014, dated 2018)
